Where two headings read alike, the source gives them in different places.
What was measured:
[1] = system: T-Rex 293 cell line SC3 cells having increased expression of androgen receptor protein due to exposure to doxycycline; assay: Cellular growth inhibition assay, T-Rex 293 SC3 cells with doxycycline (CellTiter-Glo, 72 hours); format: cell-based; settings: T-Rex 293 SC3 cells with increased androgen receptor expression due to doxycycline (10 ng/mL)
Summary of the method: (§1)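 Doxycycline (10 ng/mL) was either included or omitted to toggle wild-type androgen receptor expression in SC3 cells, a T-Rex 293 clone, grown in stripped-serum, phenol red-free medium. After 72 hours with compound, viable cells were quantified by CellTiter-Glo 2.0.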

[2] = system: T-Rex 293 cell line SC3 cells lacking increased expression of androgen receptor protein; assay: Cellular growth inhibition assay, T-Rex 293 SC3 cells without doxycycline (CellTiter-Glo, 72 hours); format: cell-based; settings: T-Rex 293 cell line SC3 cells not exposed to doxycycline (lacking increased androgen receptor expression)
Summary of the method: as §1

VCaP cells = assay: Cellular growth inhibition assay for VCaP cells (CellTiter-Glo, 72 hours); format: cell-based, human
Summary of the method: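 Luminescent viability signal after 72 h of compound exposure gave GI50 values by four-parameter nonlinear regression. Compounds were added in 0.5% DMSO to cells plated 24 h earlier at 5000/well in DMEM containing 10% FBS.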

T47D cells = assay: Cellular growth inhibition assay for T47D cells (CellTiter-Glo, 72 hours); format: cell-based, human; settings: 72 hours treatment
Procedure: T47D cells were purchased from American Type Cell Culture (ATCC Cat #HTB-133) and then seeded on poly-D-lysine coated, black clear-bottom 384-well plates at 3000/well in 25 μL Dulbecco's Modified Eagle Medium (DMEM) supplemented with 10% w/w Fetal bovine serum (FBS), 0.2 units/mL recombinant human insulin (Gibco Cat #12585014), and 1% w/w Pen-Strep. Pen-Strep is a commercially available mixture of penicillin G and streptomycin, which is used in mammalian cell culture media to prevent bacterial contamination. Dulbecco's Modified Eagle Medium (DMEM) supplemented with 10% w/w fetal bovine serum (FBS), 0.2 units/mL recombinant human insulin, and 1% w/w Pen-Strep is herein referred to as Treatment Medium. Following seeding of cells in the plates, the plates were spun at 300×g for 30 seconds, then equilibrated to room temperature for 30 minutes, and then deposited in a humidified tissue culture incubator maintained at 37° C. with 5% CO2.
At 24 hours after seeding of the cells, dilutions of test compound were prepared in DMSO and dissolved in Treatment Medium, to achieve a final DMSO concentration of 0.5% w/w, thereby providing the Test Compound Solution. A 25 μL aliquot of the Test Compound Solution was added to cells in the well plates. An equal volume of a solution containing DMSO and Treatment Medium was used as a negative control. Following treatment of cells with Test Compound Solution or said equal volume of a solution containing DMSO and Treatment Medium, the plates were spun at 300×g for 30 seconds, and then left in an incubator for 72 hours.
At the end of the treatment duration, cell viability was quantified with CellTiter-Glo 2.0 reagent (Promega Cat #G9243). For this purpose, plates were equilibrated to room temperature for 30 minutes, and then 25 μL of CellTiter-Glo 2.0 reagent was added to cells in the plate wells. Plates were then agitated on a shaker for two minutes at 500 rpm and subsequently incubated at room temperature for 10 minutes. Following incubation, the plates were spun at 3000×g for 30 seconds, then sealed with an optical adhesive cover, and luminescence readings were measured with an EnVision Plate Reader (Perkin Elmer).
Data was normalized using zero luminescence for baseline. A four-parameter non-linear regression curve fit was applied to dose-response data in GraphPad Prism data analysis software to determine the half-maximal growth inhibitory concentration (GI50) for each test compound.

Structure (SMILES)	GI50 ([1]; 72 h) [nM]	GI50 ([2]; 72 h) [nM]	GI50 (VCaP cells; Homo sapiens, VCaP, 72 h) [nM]	GI50 (T47D cells; Homo sapiens, T47D, 72 h) [nM]	GI50 [2] [nM]	GI50 (T47D cells) [nM]	GI50 [1] [nM]	GI50 (VCaP cells) [nM]
CCNC(=O)C[C@@H]1N=C(c2ccc(OC3CN(c4ccc(C(=O)N[C@H]5CC[C@H](Oc6ccc(C#N)c(Cl)c6)CC5)nn4)C3)cc2)c2c(sc(C)c2C)-n2c(C)nnc21 [I-47]	< 500	500 to 1500	500 to 1500	500 to 1500				
CCNC(=O)C[C@@H]1N=C(c2ccc(OCCN(C)c3ccc(C(=O)N[C@H]4CC[C@H](Oc5ccc(C#N)c(Cl)c5)CC4)nn3)cc2)c2c(sc(C)c2C)-n2c(C)nnc21 [I-49]	< 500	500 to 1500	< 500	500 to 1500				
Cc1sc2c(c1C)C(c1ccc(CCC3CCN(c4ccc(C(=O)NC5CCC(Oc6ccc(C#N)c(Cl)c6)CC5)nn4)CC3)cc1)=N[C@@H](Cc1ncco1)c1nnc(C)n1-2 (stereo partly drawn) [I-74, N-[4-(3-chloro-4-cyano-phenoxy)cyclohexyl]-6-[4-[2-[4-[(9S)-4,5,13-trimethyl-9-(oxazol-2-ylmethyl)-3-thia-1,8,11,12-tetrazatricyclo[8.3.0.02,6]trideca-2(6),4,7,10,12-pentaen-7-yl]phenyl]ethyl]-1-piperidyl]pyridazine-3-carboxamide]	< 500	< 500	< 500	< 500				
Cc1sc2c(c1C)C(c1ccc(CCCC3CCN(c4ccc(C(=O)N[C@H]5CC[C@H](Oc6ccc(C#N)c(Cl)c6)CC5)nn4)CC3)cc1)=NC(Cc1ncco1)c1nnc(C)n1-2 (some centres unmarked) [I-75]	< 500	< 500	< 500	< 500				
Cc1sc2c(c1C)C(c1ccc(OC3CC4(CCN(c5ccc(C(=O)N[C@H]6CC[C@H](Oc7ccc(C#N)c(Cl)c7)CC6)nn5)CC4)C3)cc1)=NC(Cc1ncco1)c1nnc(C)n1-2 (some centres unmarked) [I-77]	< 500	500 to 1500	< 500	1500 to 3000				
Cc1sc2c(c1C)C(c1ccc(OCCC3CCN(c4ccc(C(=O)N[C@H]5CC[C@H](Oc6ccc(C#N)c(Cl)c6)CC5)nn4)CC3)cc1)=NC(Cc1ncco1)c1nnc(C)n1-2 (some centres unmarked) [I-78]	< 500	< 500	< 500	< 500				
Cc1sc2c(c1C)C(c1ccc(OC3CC4(CCN(c5ccc(C(=O)N[C@H]6CC[C@H](Oc7ccc(C#N)c(Cl)c7)CC6)nn5)CC4)C3)cc1)=N[C@@H](Cc1ncco1)c1nnc(C)n1-2 [I-79]	< 500	< 500	< 500	< 500				
Cc1sc2c(c1C)C(c1ccc(OC3CC4(CCN(c5ccc(C(=O)N[C@H]6CC[C@H](Oc7ccc(C#N)c(Cl)c7)CC6)nn5)CC4)C3)cc1)=N[C@H](Cc1ncco1)c1nnc(C)n1-2 [I-80]	< 500	> 3000	< 500	> 3000				
Cc1sc2c(c1C)C(c1ccc(OC3CN(CC4CCN(c5ccc(C(=O)N[C@H]6CC[C@H](Oc7ccc(C#N)c(Cl)c7)CC6)nn5)CC4)C3)cc1)=N[C@@H](Cc1ncco1)c1nnc(C)n1-2 [I-81]	< 500		< 500		> 3000	> 3000		
Cc1sc2c(c1C)C(c1ccc(OC3CN(CC4CCN(c5ccc(C(=O)N[C@H]6CC[C@H](Oc7ccc(C#N)c(Cl)c7)CC6)nn5)CC4)C3)cc1)=N[C@H](Cc1ncco1)c1nnc(C)n1-2 [I-82]	< 500	< 500	< 500	< 500				
Cc1sc2c(c1C)C(c1ccc(OC3CC4(CCN(c5ccc(C(=O)N[C@H]6CC[C@H](Oc7ccc(C#N)c(Cl)c7)CC6)nn5)CC4)C3)cc1)=N[C@@H](CC#N)c1nnc(C)n1-2 [I-83]	< 500	> 3000	< 500	< 500				
Cc1sc2c(c1C)C(c1ccc(OC3CC4(CCN(c5ncc(C(=O)N[C@H]6CC[C@H](Oc7ccc(C#N)c(Cl)c7)CC6)cn5)CC4)C3)cc1)=N[C@@H](Cc1ncco1)c1nnc(C)n1-2 [I-84]	< 500	< 500	< 500	< 500				
Cc1sc2c(c1C)C(c1ccc(OC3CCC4(C3)CN(c3ccc(C(=O)N[C@H]5CC[C@H](Oc6ccc(C#N)c(Cl)c6)CC5)nn3)C4)cc1)=N[C@@H](Cc1ncco1)c1nnc(C)n1-2 (some centres unmarked) [I-85]	< 500	< 500	< 500	< 500				
Cc1sc2c(c1C)C(c1ccc(OC3CN(CC4CCN(c5ccc(C(=O)N[C@H]6CC[C@H](Oc7ccc(C#N)c(Cl)c7)CC6)nn5)CC4)C3)cc1)=N[C@@H](Cc1ncco1)c1nnc(C)n1-2 [I-87]					< 500	< 500	< 500	< 500
Cc1sc2c(c1C)C(c1ccc(OC3CC4(CCN(c5ccc(C(=O)N[C@H]6CC[C@H](Oc7ccc(C#N)c(Cl)c7)CC6)cn5)CC4)C3)cc1)=N[C@@H](Cc1ncco1)c1nnc(C)n1-2 [I-88]	< 500	< 500	< 500	< 500				
Cc1sc2c(c1C)C(c1ccc(OC3CC4(CCN(c5ccc(C(=O)N[C@H]6CC[C@H](Oc7ccc(C#N)c(Cl)c7)CC6)nc5)CC4)C3)cc1)=N[C@@H](Cc1ncco1)c1nnc(C)n1-2 [I-89]	< 500	< 500	< 500	< 500				
Cc1sc2c(c1C)C(c1ccc(O[C@H]3C[C@H](OC4CCN(c5ccc(C(=O)N[C@H]6CC[C@H](Oc7ccc(C#N)c(Cl)c7)CC6)nn5)CC4)C3)cc1)=N[C@@H](Cc1ncco1)c1nnc(C)n1-2 [I-90]	< 500	< 500	< 500	< 500				
Cc1sc2c(c1C)C(c1ccc(OC3CC4(C3)CN(c3ccc(C(=O)N[C@H]5CC[C@H](Oc6ccc(C#N)c(Cl)c6)CC5)nn3)C4)cc1)=N[C@@H](Cc1ncco1)c1nnc(C)n1-2 [I-91]	< 500	< 500	< 500	< 500				
Cc1sc2c(c1C)C(c1ccc(O[C@H]3C[C@@]4(CCCN(c5ccc(C(=O)N[C@H]6CC[C@H](Oc7ccc(C#N)c(Cl)c7)CC6)nn5)C4)C3)cc1)=N[C@@H](Cc1ncco1)c1nnc(C)n1-2 [I-92]	< 500	< 500	< 500	500 to 1500				
Cc1sc2c(c1C)C(c1ccc(O[C@H]3C[C@]4(CCCN(c5ccc(C(=O)N[C@H]6CC[C@H](Oc7ccc(C#N)c(Cl)c7)CC6)nn5)C4)C3)cc1)=N[C@@H](Cc1ncco1)c1nnc(C)n1-2 [I-93]	< 500	< 500	< 500	500 to 1500				
